According to ChEMBL document CHEMBL1201862, “PubChem BioAssay data set” (2004):
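Dose response: 5 concentrations. Exposure: 48 h. Format: 96-well plates. Endpoint: linear interpolation; highest concentration if not reached. GI50 marks 50% less growth.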 Calls of active or inactive are those of the source. Rule as the data show it: active = GI50 up to about 1.1 µM and inactive = higher.

Assays:
Test in all cases: growth of human tumour cells (NCI), 48 h
786-0 = tested on: 786-0
A498 = tested on: A498
A549 = tested on: A549
ACHN = tested on: ACHN
BT-549 = tested on: BT-549
CAKI-1 = tested on: CAKI-1
CCRF-CEM = tested on: CCRF-CEM
COLO 205 = tested on: COLO 205
DU-145 = tested on: DU-145
EKVX = tested on: EKVX
HCC 2998 = tested on: HCC 2998
HCT-116 = tested on: HCT-116
HCT-15 = tested on: HCT-15
HL-60 = tested on: HL-60
HT-29 = tested on: HT-29
Hs-578T = tested on: Hs-578T
IGROV-1 = tested on: IGROV-1
K562 = tested on: K562
KM12 = tested on: KM12
LOX IMVI = tested on: LOX IMVI
M14 = tested on: M14
MCF7 = tested on: MCF7
MDA-MB-231 = tested on: MDA-MB-231
MDA-MB-435 = tested on: MDA-MB-435
MDA-N = tested on: MDA-N
MOLT-4 = tested on: MOLT-4
Malme-3M = tested on: Malme-3M
NCI-H226 = tested on: NCI-H226
NCI-H23 = tested on: NCI-H23
NCI-H460 = tested on: NCI-H460
NCI-H522 = tested on: NCI-H522
NCI/ADR-RES = tested on: NCI/ADR-RES
OVCAR-3 = tested on: OVCAR-3
OVCAR-5 = tested on: OVCAR-5
OVCAR-8 = tested on: OVCAR-8
PC-3 = tested on: PC-3
RPMI-8226 = tested on: RPMI-8226
RXF 393 = tested on: RXF 393
SF-268 = tested on: SF-268
SF-295 = tested on: SF-295
SF-539 = tested on: SF-539
SK-MEL-28 = tested on: SK-MEL-28
SK-MEL-2 = tested on: SK-MEL-2
SK-MEL-5 = tested on: SK-MEL-5
SK-OV-3 = tested on: SK-OV-3
SN12C = tested on: SN12C
SNB-19 = tested on: SNB-19
SNB-75 = tested on: SNB-75
SR = tested on: SR
SW-620 = tested on: SW-620
TK-10 = tested on: TK-10
U-251 = tested on: U-251
UACC-257 = tested on: UACC-257
UACC-62 = tested on: UACC-62
UO-31 = tested on: UO-31
HOP-62 = tested on: HOP-62
HOP-92 = tested on: HOP-92
OVCAR-4 = tested on: OVCAR-4

`CCOc1ccc(NC(=O)/C=C/c2ccco2)cc1` was tested, and the GI50 (786-0) was > 100 µM (inactive), the GI50 (A498) was 42.7 µM (inactive) and the GI50 (A549) was > 100 µM (inactive). The GI50 (ACHN) was > 100 µM (inactive), the GI50 (BT-549) was 38 µM (inactive) and the GI50 (CAKI-1) was > 100 µM (inactive). For the same molecule, the GI50 (CCRF-CEM) was 34.8 µM (inactive), the GI50 (COLO 205) was 36.1 µM (inactive) and the GI50 (DU-145) was 47 µM (inactive). For the same molecule, the GI50 (EKVX) was 87.3 µM (inactive), the GI50 (HCC 2998) was 35.2 µM (inactive) and the GI50 (HCT-116) was 41.2 µM (inactive). For the same molecule, the GI50 (HCT-15) was 41.2 µM, the GI50 (HL-60) was 11.9 µM (inactive) and the GI50 (HT-29) was 26.4 µM (inactive). The GI50 (Hs-578T) was 65 µM (inactive), the GI50 (IGROV-1) was > 100 µM (inactive) and the GI50 (K562) was 24.2 µM (inactive). For the same molecule, the GI50 (KM12) was 30.5 µM (inactive), the GI50 (LOX IMVI) was 54.3 µM (inactive) and the GI50 (M14) was 58.2 µM (inactive). The GI50 (MCF7) was 75.2 µM (inactive), the GI50 (MDA-MB-231) was > 100 µM (inactive) and the GI50 (MDA-MB-435) was 5.98 µM (inactive). For the same molecule, the GI50 (MDA-N) was 12.3 µM (inactive), the GI50 (MOLT-4) was 40 µM (inactive) and the GI50 (Malme-3M) was > 100 µM (inactive). For the same molecule, the GI50 (NCI-H226) was 86.9 µM (inactive), the GI50 (NCI-H23) was > 100 µM (inactive) and the GI50 (NCI-H460) was 43.8 µM (inactive). For the same molecule, the GI50 (NCI-H522) was > 100 µM (inactive), the GI50 (NCI/ADR-RES) was 30.8 µM (inactive) and the GI50 (OVCAR-3) was > 10 µM (inactive). The GI50 (OVCAR-5) was > 100 µM (inactive), the GI50 (OVCAR-8) was 85.9 µM (inactive) and the GI50 (PC-3) was 35.6 µM (inactive). The GI50 (RPMI-8226) was 32.3 µM (inactive), the GI50 (RXF 393) was 67.1 µM (inactive) and the GI50 (SF-268) was 78.7 µM (inactive). For the same molecule, the GI50 (SF-295) was 61.8 µM (inactive), the GI50 (SF-539) was 26 µM (inactive) and the GI50 (SK-MEL-28) was > 100 µM (inactive). The GI50 (SK-MEL-2) was > 100 µM (inactive), the GI50 (SK-MEL-5) was 44.3 µM (inactive) and the GI50 (SK-OV-3) was 32.4 µM (inactive). For the same molecule, the GI50 (SN12C) was 79.6 µM (inactive), the GI50 (SNB-19) was > 100 µM (inactive) and the GI50 (SNB-75) was 84.3 µM (inactive). For the same molecule, the GI50 (SR) was 28.8 µM (inactive), the GI50 (SW-620) was > 100 µM (inactive) and the GI50 (TK-10) was > 100 µM (inactive). The GI50 (U-251) was 33.8 µM (inactive), the GI50 (UACC-257) was 72.9 µM (inactive) and the GI50 (UACC-62) was > 100 µM (inactive). For the same molecule, the GI50 (UO-31) was 87.1 µM (inactive).
`O=C(CNc1cccc(Cl)c1)Nn1c(-c2ccccc2)nc2ccccc2c1=O` was tested, and the GI50 (786-0) was 2.77 µM (inactive), the GI50 (A498) was 19.5 µM (inactive) and the GI50 (A549) was 19.7 µM (inactive). For the same molecule, the GI50 (ACHN) was 13.6 µM (inactive), the GI50 (BT-549) was 2.16 µM (inactive) and the GI50 (CCRF-CEM) was 1.58 µM (inactive). For the same molecule, the GI50 (COLO 205) was 3.83 µM (inactive), the GI50 (DU-145) was 16 µM (inactive) and the GI50 (EKVX) was 17.9 µM (inactive). For the same molecule, the GI50 (HCC 2998) was 10.4 µM (inactive), the GI50 (HCT-116) was 1.77 µM (inactive) and the GI50 (HL-60) was 2.95 µM (inactive). For the same molecule, the GI50 (HOP-62) was 14.1 µM (inactive), the GI50 (HOP-92) was 2.31 µM (inactive) and the GI50 (HT-29) was 5.9 µM (inactive). The GI50 (Hs-578T) was 19.2 µM (inactive), the GI50 (IGROV-1) was 4.35 µM (inactive) and the GI50 (K562) was 2.66 µM (inactive). The GI50 (KM12) was 10.9 µM (inactive), the GI50 (LOX IMVI) was 1.21 µM (inactive) and the GI50 (M14) was 2.09 µM (inactive). For the same molecule, the GI50 (MCF7) was 2.04 µM (inactive), the GI50 (MDA-MB-231) was 3.37 µM (inactive) and the GI50 (MDA-MB-435) was 4.2 µM (inactive). The GI50 (MDA-N) was 9.59 µM (inactive), the GI50 (MOLT-4) was 1.35 µM (inactive) and the GI50 (NCI-H226) was 13.3 µM (inactive). The GI50 (NCI-H23) was 2.4 µM (inactive), the GI50 (NCI-H460) was 10.5 µM (inactive) and the GI50 (NCI-H522) was 1.42 µM (inactive). For the same molecule, the GI50 (OVCAR-3) was 7.1 µM (inactive), the GI50 (OVCAR-4) was 3.58 µM (inactive) and the GI50 (OVCAR-5) was 18.6 µM (inactive). The GI50 (OVCAR-8) was 4.34 µM (inactive), the GI50 (PC-3) was 10.2 µM (inactive) and the GI50 (RPMI-8226) was 10 µM (inactive). The GI50 (SF-268) was 4.71 µM (inactive), the GI50 (SF-295) was 14.1 µM (inactive) and the GI50 (SF-539) was 3.69 µM (inactive). The GI50 (SK-MEL-28) was 8.02 µM (inactive), the GI50 (SK-MEL-5) was 1.53 µM (inactive) and the GI50 (SK-OV-3) was 10.8 µM (inactive). For the same molecule, the GI50 (SN12C) was 4.13 µM (inactive), the GI50 (SNB-19) was 15.7 µM (inactive) and the GI50 (SNB-75) was 3.61 µM (inactive). For the same molecule, the GI50 (SR) was 4.6 µM (inactive), the GI50 (SW-620) was 2.47 µM (inactive) and the GI50 (TK-10) was > 10 µM (inactive). For the same molecule, the GI50 (U-251) was 1.74 µM (inactive), the GI50 (UACC-257) was 14 µM (inactive) and the GI50 (UACC-62) was 1.69 µM (inactive). The GI50 (UO-31) was 17.2 µM (inactive).
